In brackets after ≈: the same amount, converted by molar mass.
Columns and labels:
[1] = molecular target: T1, endogenous CB2R in human Jurkat cells (Homo sapiens, UniProt P34972); test: Competition binding, [^3H]-RO6753361, Jurkat cell membranes
T1 construct: endogenous CB2R in human Jurkat cells; endogenous in cells; host or cells: Jurkat cells
Description: Competition and saturation binding assays were performed using the radiolabeled CB1R/CB2R agonist [^3H]-CP55940 (PerkinElmer, Waltham, MA, United States) in recombinant cell systems, and the newly developed CB2R-selective agonist [^3H]-RO6753361 ([Chicca et al., 2024]) in cells expressing endogenous CB1R/CB2R. Competition assays were conducted by incubating 5, 40, or 40 µg of membrane protein from CHO cells, Jurkat cells or spleen cells, respectively, with 1.5 nM [^3H]-CP55940 or 1.5 nM [^3H]-RO6753361 in the presence or absence of increasing concentrations of ligand (RG7774 or control) for 2 h at 30°C in a final volume of 0.2 mL of assay buffer (50 mmol/L Tris-HCl, 5 mmol/L MgCl2, 2.5 mmol/L EDTA, and 0.5% fatty acid-free BSA [pH 7.4] and 1% DMSO), with gentle shaking. Saturation binding assays were conducted by incubating 1–3 μg, 40 μg, or 30–40 μg of membrane protein from CHO cells, Jurkat cells, or spleen tissue, respectively, with 12 concentrations in the range of 80–0.039 nM [^3H]-CP55940 or [^3H]-RO6753361 for 2 h at 30°C in a final volume of 0.2 mL/well of assay buffer without DMSO. […] IC50 values and Hill slopes were determined with a 4-parameter logistic model using ActivityBase (ID Business Solution, Guilford, United Kingdom) and pKi values were determined using the Cheng-Prusoff equation ([Cheng and Prusoff, 1973]).

[2] = Kinetic lyophilization solubility assay (LYSA); type: physicochemical; settings: aqueous buffer, 0.05 M PBS pH 6.5
Description: RG7774 samples were prepared in duplicate from 10 mM DMSO stock solutions. DMSO was evaporated for 1 h using a centrifugal vacuum evaporator (Genevac Technologies, UK) and the residue was dissolved in 0.05 M PBS (pH 6.5), stirred for 1 h, and shaken for 2 h. Solutions were filtered 12 h later using a microtiter filter plate (MSDV N65; Merck Millipore, MA, USA). The filtrate and its 1:10 dilution were analyzed by direct ultraviolet (UV) measurement or high-performance liquid chromatography with UV spectroscopy (HPLC-UV). […] The measurement range for a compound with molecular weight 500 was 0 to 666 μg/mL.

pKa = type: physicochemical; settings: basic
Excerpt: TABLE 2 Physicochemical and ADMET profile for RG7774.

[3] = system: STZ-induced diabetes retinal vascular permeability; test: Rats with STZ-induced type 1 diabetes (fluorophotometry); type: in vivo, Long Evans rats; settings: STZ diabetic rats, 10 mg/kg daily oral gavage, 6 weeks after STZ, normalized to plasma
Description: Twenty-six male Long Evans rats (outbred) (Charles River Laboratories, Sulzfeld, Germany) aged 7 weeks and weighing 250–270 g at the beginning of the study were housed in individually ventilated cages with a maximum density of n = 2 rats per cage with the same sex and monitored daily. Bedding for diabetic animals was changed daily. The room was kept at 20°C–24°C with 50%–60% humidity and a 12/12 h light-dark cycle. Rats received a standard diet and water ad libidum, in addition to soaked food or soft diet. For animal welfare and for dosing purposes, animals were weighed every other day. Rats were sacrificed if weight loss was greater than 20% of the original weight, or more than 20% of body gain within 1 week.
Animals were fasted overnight and injected the following morning with IP 60 mg/kg (60 mg/mL at 1 mL/kg) STZ as reported previously ([Kim et al., 2007]; [Furman, 2015]) in 0.05 M sodium citrate buffer (pH 4.5). […]
To quantify fluorotron measurements, raw data were generated, exported as .txt files, and plotted using Microsoft Excel. The average AUC was calculated for 5 steps in the region of the scans corresponding to the vitreous peak. […] All data are expressed as mean ± SEM ng/mL ratios of vitreous:plasma fluorescein. Fluorophotometry data were analyzed using 2-way ANOVA followed by Newman–Keuls multiple comparisons test. […]

T1 sequence (P34972 whole entry): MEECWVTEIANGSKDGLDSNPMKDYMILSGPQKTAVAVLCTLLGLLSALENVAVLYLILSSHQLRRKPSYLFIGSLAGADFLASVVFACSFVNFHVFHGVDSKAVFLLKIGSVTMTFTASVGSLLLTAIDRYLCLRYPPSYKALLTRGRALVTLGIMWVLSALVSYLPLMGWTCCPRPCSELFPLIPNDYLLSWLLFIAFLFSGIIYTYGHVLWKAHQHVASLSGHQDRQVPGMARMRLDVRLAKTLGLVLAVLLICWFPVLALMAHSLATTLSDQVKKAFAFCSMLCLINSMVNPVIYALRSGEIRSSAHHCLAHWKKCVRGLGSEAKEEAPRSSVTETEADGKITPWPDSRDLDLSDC

Cn1nnnc1Cn1nnc2c(N3CC[C@H](O)C3)nc(C(C)(C)C)nc21 [RG7774, (S)-1-(5-tert-butyl-3-[(1-methyl-1H-tetrazol-5-yl)methyl]-3H-[1,2,3]triazolo[4,5-d]pyrimidin-7-yl)pyrrolidin-3-ol]
Ki [1]: 31.9 ± 13.4 nM
solubility kinetic [2]: 285 µg/mL (≈ 795 µM)
pKa (pKa): 2.63
vitreous fluorescein [3]: 25.6 ng/mL

— publication PMC11272598, “RG7774 (Vicasinabin), an orally bioavailable cannabinoid receptor 2 (CB2R) agonist, decreases retinal vascular permeability, leukocyte adhesion, and ocular inflammation in animal models” (Frontiers in Pharmacology, 2024)
